Results from PubChem BioAssay (NCI).
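How tested: cells in 96-well plates exposed to compound for 48 hours at five concentrations. Here, GI50 denotes the concentration required for 50% inhibition of growth. Definition used: TGI = concentration required for complete inhibition of growth.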

How the values were obtained:
Test in all cases: NCI tumour cell line growth inhibition, 48 h
A498 renal = test system: A498 renal
IGROV1 ovarian = test system: IGROV1 ovarian
DU-145 prostate = test system: DU-145 prostate
T-47D breast = test system: T-47D breast
OVCAR-3 ovarian = test system: OVCAR-3 ovarian
RXF 393 renal = test system: RXF 393 renal
SK-MEL-5 melanoma = test system: SK-MEL-5 melanoma
EKVX NSCLC = test system: EKVX NSCLC
HOP-92 NSCLC = test system: HOP-92 NSCLC
SN12C renal = test system: SN12C renal
SW-620 colon = test system: SW-620 colon
RPMI-8226 leukemia = test system: RPMI-8226 leukemia
MCF7 breast = test system: MCF7 breast
SNB-75 CNS = test system: SNB-75 CNS
MDA-MB-435 = test system: MDA-MB-435
HCC-2998 colon = test system: HCC-2998 colon
K-562 leukemia = test system: K-562 leukemia
A549 NSCLC = test system: A549 NSCLC
UO-31 renal = test system: UO-31 renal
SR leukemia = test system: SR leukemia
HCT-116 colon = test system: HCT-116 colon
PC-3 prostate = test system: PC-3 prostate
786-0 renal = test system: 786-0 renal
UACC-257 melanoma = test system: UACC-257 melanoma
CCRF-CEM leukemia = test system: CCRF-CEM leukemia
NCI/ADR-RES ovarian = test system: NCI/ADR-RES ovarian
CAKI-1 renal = test system: CAKI-1 renal
SK-MEL-28 melanoma = test system: SK-MEL-28 melanoma
SK-MEL-2 melanoma = test system: SK-MEL-2 melanoma
SK-OV-3 ovarian = test system: SK-OV-3 ovarian
BT-549 breast = test system: BT-549 breast
KM12 colon = test system: KM12 colon
HCT-15 colon = test system: HCT-15 colon
MALME-3M melanoma = test system: MALME-3M melanoma
NCI-H23 lung = test system: NCI-H23 lung
LOX IMVI melanoma = test system: LOX IMVI melanoma
HS 578T breast = test system: HS 578T breast
COLO 205 colon = test system: COLO 205 colon
HOP-62 NSCLC = test system: HOP-62 NSCLC
SF-539 CNS = test system: SF-539 CNS
ACHN renal = test system: ACHN renal
HL-60(TB) leukemia = test system: HL-60(TB) leukemia
TK-10 renal = test system: TK-10 renal
MDA-MB-231 breast = test system: MDA-MB-231 breast
NCI-H522 lung = test system: NCI-H522 lung
NCI-H460 lung = test system: NCI-H460 lung
M14 melanoma = test system: M14 melanoma
HT29 colon = test system: HT29 colon
MOLT-4 leukemia = test system: MOLT-4 leukemia
OVCAR-8 ovarian = test system: OVCAR-8 ovarian
SNB-19 CNS = test system: SNB-19 CNS
SF-268 CNS = test system: SF-268 CNS
UACC-62 melanoma = test system: UACC-62 melanoma
SF-295 CNS = test system: SF-295 CNS
OVCAR-4 ovarian = test system: OVCAR-4 ovarian
NCI-H226 lung = test system: NCI-H226 lung
OVCAR-5 ovarian = test system: OVCAR-5 ovarian
U251 CNS = test system: U251 CNS

## CN1CCN(Cc2ccc(NC(=O)c3cncc(C#Cc4cnc5ccc(O[C@H]6CCOC6)nn45)c3)cc2C(F)(F)F)CC1
A498 renal
  GI50: 0.871 µM
  TGI: 1.59 µM
IGROV1 ovarian
  GI50: 0.177 µM
  TGI: 0.818 µM
DU-145 prostate
  GI50: 0.521 µM
  TGI: 1.18 µM
T-47D breast
  GI50: 0.934 µM
  TGI: 2.21 µM
OVCAR-3 ovarian
  GI50: 0.591 µM
  TGI: 1.29 µM
RXF 393 renal
  GI50: 0.681 µM
  TGI: 1.44 µM
SK-MEL-5 melanoma
  GI50: 0.716 µM
  TGI: 1.4 µM
EKVX NSCLC
  GI50: 0.623 µM
  TGI: 1.35 µM
HOP-92 NSCLC
  GI50: 0.0551 µM
  TGI: 0.275 µM
SN12C renal
  GI50: 0.307 µM
  TGI: 1.06 µM
SW-620 colon
  GI50: 0.177 µM
  TGI: 0.871 µM
RPMI-8226 leukemia
  GI50: 0.815 µM
  TGI: 2.74 µM
MCF7 breast
  GI50: 0.149 µM
  TGI: 0.752 µM
SNB-75 CNS
  GI50: 0.295 µM
  TGI: 0.795 µM
MDA-MB-435
  GI50: 0.159 µM
  TGI: 0.705 µM
HCC-2998 colon
  GI50: 0.341 µM
  TGI: 0.964 µM
K-562 leukemia
  GI50: 0.005 µM
  TGI: 0.544 µM
A549 NSCLC
  GI50: 0.475 µM
  TGI: 1.45 µM
UO-31 renal
  GI50: 0.27 µM
  TGI: 0.853 µM
SR leukemia
  GI50: 0.284 µM
  TGI: 1.44 µM
HCT-116 colon
  GI50: 0.0456 µM
  TGI: 0.212 µM
PC-3 prostate
  GI50: 0.72 µM
  TGI: 2.28 µM
786-0 renal
  GI50: 0.187 µM
  TGI: 0.397 µM
UACC-257 melanoma
  GI50: 0.653 µM
  TGI: 1.38 µM
CCRF-CEM leukemia
  GI50: 0.305 µM
  TGI: 4.76 µM
NCI/ADR-RES ovarian
  GI50: 1.12 µM
  TGI: 3.1 µM
CAKI-1 renal
  GI50: 0.226 µM
  TGI: 0.744 µM
SK-MEL-28 melanoma
  GI50: 0.41 µM
  TGI: 1.11 µM
SK-MEL-2 melanoma
  GI50: 0.431 µM
  TGI: 1.12 µM
SK-OV-3 ovarian
  GI50: 0.848 µM
  TGI: 1.76 µM
BT-549 breast
  GI50: 0.375 µM
  TGI: 0.783 µM
KM12 colon
  GI50: 0.005 µM
  TGI: 0.725 µM
HCT-15 colon
  GI50: 0.385 µM
  TGI: 1.4 µM
MALME-3M melanoma
  GI50: 0.0976 µM
  TGI: 0.438 µM
NCI-H23 lung
  GI50: 0.245 µM
  TGI: 1 µM
LOX IMVI melanoma
  GI50: 0.186 µM
  TGI: 0.743 µM
HS 578T breast
  GI50: 0.555 µM
  TGI: 1.59 µM
COLO 205 colon
  GI50: 0.227 µM
  TGI: 0.828 µM
HOP-62 NSCLC
  GI50: 0.505 µM
  TGI: 1.28 µM
SF-539 CNS
  GI50: 0.171 µM
  TGI: 0.771 µM
ACHN renal
  GI50: 0.396 µM
  TGI: 1.04 µM
HL-60(TB) leukemia
  GI50: 0.194 µM
  TGI: 0.692 µM
TK-10 renal
  GI50: 0.484 µM
  TGI: 1.13 µM
MDA-MB-231 breast
  GI50: 0.174 µM
  TGI: 0.85 µM
NCI-H522 lung
  GI50: 0.562 µM
  TGI: 1.32 µM
NCI-H460 lung
  GI50: 0.341 µM
  TGI: 0.962 µM
M14 melanoma
  GI50: 0.0975 µM
  TGI: 0.28 µM
HT29 colon
  GI50: 0.194 µM
  TGI: 0.826 µM
MOLT-4 leukemia
  GI50: 0.289 µM
  TGI: 2.72 µM
OVCAR-8 ovarian
  GI50: 0.675 µM
  TGI: 1.54 µM
SNB-19 CNS
  GI50: 1.21 µM
  TGI: 3.24 µM
SF-268 CNS
  GI50: 0.593 µM
  TGI: 1.42 µM
UACC-62 melanoma
  GI50: 0.488 µM
  TGI: 1.16 µM
SF-295 CNS
  GI50: 0.748 µM
  TGI: 1.51 µM
OVCAR-4 ovarian
  GI50: 0.49 µM
  TGI: 1.34 µM
NCI-H226 lung
  GI50: 0.123 µM
  TGI: 1.04 µM
OVCAR-5 ovarian
  GI50: 0.381 µM
  TGI: 1.21 µM
U251 CNS
  GI50: 0.575 µM
  TGI: 1.28 µM
